The results in this text go back to US9695205B2, “Amide compounds for treatment of complement mediated disorders” (Achillion Pharmaceuticals, Inc., priority 2014, dated 2017).

In general, IC50 refers to the concentration at which inhibition is half-maximal.

Bounds are passed on as bounds.

The assay deals with Human factor D (Homo sapiens (Human), UniProt P00746). Description: Human Factor D Assay. The assay is classed as biochemical. The note with it: Human factor D 80 nM, substrate Z-L-Lys-SBzl and DTNB 100 μM each, pH 7.5. The procedure: Example 14. Human Factor D Assay
Chain of Human factor D (P00746 26-253): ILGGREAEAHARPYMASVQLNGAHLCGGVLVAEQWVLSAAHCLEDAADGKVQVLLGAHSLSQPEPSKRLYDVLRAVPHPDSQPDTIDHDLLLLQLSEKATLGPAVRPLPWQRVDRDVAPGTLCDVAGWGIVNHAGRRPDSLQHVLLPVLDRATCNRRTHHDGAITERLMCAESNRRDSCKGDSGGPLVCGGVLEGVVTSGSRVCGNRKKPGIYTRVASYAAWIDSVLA
Human factor D (purified from human serum, Complement Technology, Inc.) at 80 nM final concentration is incubated with test compound at various concentrations for 5 minutes at room temperature in 50 mM Tris, 1M NaCl, pH 7.5. A synthetic substrate Z-L-Lys-SBzl and DTNB (Ellman's reagent) are added to final concentrations of 100 μM each. The increase in color is recorded at OD405 nm in a microplate in kinetic mode over 30 minutes with 30 second time points in a spectrofluorimeter. IC50 values are calculated by non-linear regression from the percentage of inhibition of complement factor D activity as a function of test compound concentration.
On to `NC(=O)c1nn(CC(=O)N2C[C@H](F)C[C@H]2C(=O)Nc2cccc(OC(F)(F)F)c2F)c2ccc(NC(=O)N3CCCC(F)(F)C3)cc12` [Compound 26, 5-(3,3-difluoropiperidine-1-carboxamido)-1-(2-((2S,4R)-4-fluoro-2-(2-fluoro-3-(trifluoromethoxy)phenylcarbamoyl)pyrrolidin-1-yl)-2-oxoethyl)-1H-indazole-3-carboxaide], for which the IC50 was under 1 µM. For the compound `CC(=O)c1cn(CC(=O)N2C[C@H](F)C[C@H]2C(=O)NCc2cccc(Cl)c2F)c2ccc(NC(=O)OCC3CC3)cc12` [Compound 15, cyclopropylmethyl 3-acetyl-1-(2-((2S,4R)-2-(3-chloro-2-fluorobenzylcarbamoyl)-4-fluoropyrrolidin-1-yl)-2-oxoethyl)-1H-indol-5-ylcarbamate], the IC50 was under 1 µM. To `CC(=O)c1cn(CC(=O)N2C[C@H](F)C[C@H]2C(=O)NCc2cccc(Cl)c2F)c2ccc(C(=O)N3CCCC(F)(F)C3)cc12` [Compound 40, (2S,4R)-1-(2-(3-acetyl-5-(3,3-difluoropiperidine-1-carbonyl)-1H-indol-1-yl)acetyl)-N-(3-chloro-2-fluorobenzyl)-4-fluoropyrrolidine-2-carboxamide] belongs under 1 µM. To `CC(=O)c1cn(CC(=O)N2C[C@H](F)C[C@H]2C(=O)NCc2cccc(Cl)c2F)c2cc(NC(=O)OC(C)(C)C)ccc12` [Compound 37, tert-butyl 3-acetyl-1-(2-((2S,4R)-2-(3-chloro-2-fluorobenzylcarbamoyl)-4-fluoropyrrolidin-1-yl)-2-oxoethyl)-1H-indol-6-ylcarbamate] belongs under 1 µM; to `CC(=O)c1cn(CC(=O)N2C[C@H](F)C[C@H]2C(=O)NCc2cccc(Cl)c2F)c2ccc(NC(=O)NC3CC3)cc12` [Compound 1, (2S,4R)-1-(2-(3-acetyl-5-(3-cyclopropylureido)-1H-indol-1-yl)acetyl)-N-(3-chloro-2-fluorobenzyl)-4-fluoropyrrolidine-2-carboxamide], under 1 µM. In the case of `CC(=O)c1cn(CC(=O)N2C[C@H](F)C[C@H]2C(=O)NCc2cccc(Cl)c2F)c2ccc(C(=O)NC3CC3)cc12` [Compound 41, 3-acetyl-1-(2-((2S,4R)-2-(3-chloro-2-fluorobenzylcarbamoyl)-4-fluoropyrrolidin-1-yl)-2-oxoethyl)-N-cyclopropyl-1H-indole-5-carboxamide] it was under 1 µM; in that of `CC(=O)c1cn(CC(=O)N2C[C@H](F)C[C@H]2C(=O)NCc2cccc(Cl)c2F)c2cc(C(=O)N3CCC(CN)C3)ccc12` (stereo partly drawn) [Compound 42, (2S,4R)-1-(2-(3-acetyl-6-(3-(aminomethyl)pyrrolidine-1-carbonyl)-1H-indol-1-yl)acetyl)-N-(3-chloro-2-fluorobenzyl)-4-fluoropyrrolidine-2-carboxamide], under 1 µM; in that of `CC(=O)c1cn(CC(=O)N2C[C@H](F)C[C@H]2C(=O)NCc2cccc(Cl)c2F)c2ccc(NC(=O)Nc3cncnc3)cc12` [Compound 23, (2S,4R)-1-(2-(3-acetyl-5-(3-pyrimidin-5-ylureido)-1H-indol-1-yl)acetyl)-N-(3-chloro-2-fluorobenzyl)-4-fluoropyrrolidine-2-carboxamide], under 1 µM. As for `NC(=O)c1nn(CC(=O)N2[C@@H]3C[C@@H]3C[C@H]2C(=O)Nc2cccc(Br)n2)c2ccc(NC(=O)N3CCCC(F)(F)C3)cc12` [Compound 34, 1-(2-((1R,3S,5R)-3-(6-bromopyridin-2-ylcarbamoyl)-2-azabicyclo[3.1.0]hexan-2-yl)-2-oxoethyl)-5-(3,3-difluoropiperidine-1-carboxamido)-1H-indazole-3-carboxamide], the half-maximal inhibitory concentration (IC50) is under 1 µM. To `CC(=O)c1cn(CC(=O)N2C[C@H](F)C[C@H]2C(=O)NCc2cccc(Cl)c2F)c2cc(C(=O)N3CCC(C(=O)O)C3)ccc12` (stereo partly drawn) [Compound 52, 1-(3-acetyl-1-(2-((2S,4R)-2(3-chloro-2-fluorobenzylcarbamoyl)-4-fluoropyrrolidin-1-yl)-2-oxoethyl)-1H-indole-6-carbonyl) pyrrolidine-3-carboxylic acid] belongs under 1 µM; to `NC(=O)c1nn(CC(=O)N2C[C@H](F)C[C@H]2C(=O)Nc2cccc(Br)n2)c2ccc(NC(=O)N3CCCC(F)(F)C3)cc12` [Compound 33, 1-(2-((2S,4R)-2-(6-bromopyridin-2-ylcarbamoyl)-4-fluoropyrrolidin-1-yl)-2-oxoethyl)-5-(3,3-difluoropiperidine-1-carboxamido)-1H-indazole-3-carboxamide], under 1 µM.

Take `CC(=O)c1cn(CC(=O)N2C[C@H](F)C[C@H]2C(=O)NCc2cccc(Cl)c2F)c2ccc(C(=O)N3CC=C(B(O)O)CC3)cc12` [Compound 38, 1-(3-acetyl-1-(2-((2S,4R)-2-(3-chloro-2-fluorobenzylcarbamoyl)-4-fluoropyrrolidin-1-yl)-2-oxoethyl)-1H-indole-5-carbonyl)-1,2,3,6-tetrahydropyridin-4-ylboronic acid]: the IC50 was under 1 µM.

Regarding `CC(=O)c1cn(CC(=O)N2C[C@H](F)C[C@H]2C(=O)NCc2cccc(Cl)c2F)c2ccc(C(=O)N3CC4CCC3C4)cc12` (stereo partly drawn) [Compound 39, (2S,4R)-1-(2-(3-acetyl-5-(2-azabicyclo[2.2.1]heptane-2-carbonyl)-1H-indol-1-yl)acetyl)-N-(3-chloro-2-fluorobenzyl)-4-fluoropyrrolidine-2-carboxamide], the 50% inhibitory concentration (IC50) is under 1 µM.

On to `CC(=O)c1cn(CC(=O)N2C[C@H](F)C[C@H]2C(=O)Nc2cccc(C(F)(F)F)n2)c2ccc(NC(=O)N3CCCC(F)(F)C3)cc12` [Compound 20, N-(3-acetyl-1-(2-((2S,4R)-4-fluoro-2-(6-(trifluoromethyl)pyridin-2-ylcarbamoyl)pyrrolidin-1-yl)-2-oxoethyl)-1H-indol-5-yl)-3,3-difluoropiperidine-1-carboxamide], for which the IC50 is under 1 µM. To `CC(=O)c1cn(CC(=O)N2C[C@H](F)C[C@H]2C(=O)NCc2cccc(Cl)c2F)c2ccc(NC(=O)N3CCCC3)cc12` [Compound 9, N-(3-acetyl-1-(2-((2S,4R)-2-(3-chloro-2-fluorobenzylcarbamoyl)-4-fluoropyrrolidin-1-yl)-2-oxoethyl)-1H-indol-5-yl)pyrrolidine-1-carboxamide] belongs under 1 µM.

Turning to `CC(=O)c1cn(CC(=O)N2C[C@H](F)C[C@H]2C(=O)NCc2cccc(Cl)c2F)c2ccc(NC(=O)NC(C)C)cc12` [Compound 6, (2S,4R)-1-(2-(3-acetyl-5-(3-isopropylureido)-1H-indol-1-yl)acetyl)-N-(3-chloro-2-fluorobenzyl)-4-fluoropyrrolidine-2-carboxamide], the half-inhibitory concentration (IC50) was under 1 µM. In the case of `CC(=O)c1cn(CC(=O)N2C[C@H](F)C[C@H]2C(=O)Nc2cccc(-c3ccccc3Cl)c2F)c2ccc(NC(=O)CC(F)(F)F)cc12` [Compound 36, (2S,4R)-1-(2-(3-acetyl-5-(3,3,3-trifluoropropanamido)-1H-indol-1-yl)acetyl)-N-(2′-chloro-2-fluorobiphenyl-3-yl)-4-fluoropyrrolidine-2-carboxamide] it was under 1 µM; in that of `NC(=O)c1nn(CC(=O)N2C[C@H](F)C[C@H]2C(=O)Nc2cccc(-c3ncccc3Cl)c2F)c2ccc(NC(=O)N3CCCC(F)(F)C3)cc12` [Compound 29, 1-(2-((2S,4R)-2-(3-(3-chloropyridin-2-yl)-2-fluorophenylcarbamoyl)-4-fluoropyrrolidin-1-yl)-2-oxoethyl)-5-(3,3-difluoropiperidine-1-carboxamido)-1H-indazole-3-carboxamide], under 1 µM. In the case of `NC(=O)c1nn(CC(=O)N2C[C@H](F)C[C@H]2C(=O)Nc2cccc(-c3ccccc3Cl)c2F)c2ccc(NC(=O)NCc3ncccn3)cc12` [Compound 32, 1-(2-((2S,4R)-2-(2′-chloro-2-fluorobiphenyl-3-ylcarbamoyl)-4-fluoropyrrolidin-1-yl)-2-oxoethyl)-5-(3-(pyrimidin-2-ylmethyl)ureido)-1H-indazole-3-carboxamide] it was under 1 µM. In the case of `CC(=O)c1cn(CC(=O)N2C[C@H](F)C[C@H]2C(=O)NCc2cccc(Cl)c2F)c2ccc(NC(=O)N3CCCC(F)(F)C3)cc12` [Compound 16, N-(3-acetyl-1-(2-((2S,4R)-2-(3-chloro-2-fluorobenzylcarbamoyl)-4-fluoropyrrolidin-1-yl)-2-oxoethyl)-1H-indol-5-yl)-3,3-difluoropiperidine-1-carboxamide] it was under 1 µM; in that of `NC(=O)c1nn(CC(=O)N2C[C@H](F)C[C@H]2C(=O)Nc2cccc(-c3ccccc3Cl)c2F)c2ccc(NC(=O)N3CCC(F)(F)C3)cc12` [Compound 30, 1-(2-((2S,4R)-2-(2′-chloro-2-fluorobiphenyl-3-ylcarbamoyl)-4-fluoropyrrolidin-1-yl)-2-oxoethyl)-5-(3,3-difluoropyrrolidine-1-carboxamido)-1H-indazole-3-carboxamide], under 1 µM; in that of `CC(=O)c1cn(CC(=O)N2C[C@H](F)C[C@H]2C(=O)NCc2cccc(Cl)c2F)c2ccc(NC(=O)NC3(C)CC3)cc12` [Compound 4, (2S,4R)-1-(2-(3-acetyl-5-(3-(1-methylcyclopropyl)ureido)-1H-indol-1-yl)acetyl)-N-(3-chloro-2-fluorobenzyl)-4-fluoropyrrolidine-2-carboxamide], under 1 µM.

Turning to `CC(=O)c1cn(CC(=O)N2C[C@H](F)C[C@H]2C(=O)Nc2cccc(OC(F)(F)F)c2F)c2ccc(NC(=O)NC3CC3)cc12` [Compound 10, (2S,4R)-1-(2-(3-acetyl-5-(3-cyclopropylureido)-1H-indol-1-yl)acetyl)-4-fluoro-N-(2-fluoro-3-(trifluoromethoxy)phenyl) pyrrolidine-2-carboxamide], the concentration for half-maximal inhibition (IC50) was under 1 µM.
